# Like-named read-outs stand apart in the source and are kept apart here.
# Key:
# [1] = system: C. albicans clinical reference strain SC5314; assay: Adenylate kinase (AK) release assay of yeast cell lysis; type: cell-based, Candida albicans; set-up: dose or concentration left out as unconfirmed; settings: extracellular AK activity relative to DMSO-treated cells
# Procedure: AK assays were performed according to a recently published protocol (Didone et al., Nat. Protocol. 5:1107-14 (2010)) using the 96-well plate version using the Toxi-Light Assay kit (Lonza; Basel, Switzerland). Luminescence was measured using a SpectraMax plate reader (Molecular Devices; Sunnyvale, Calif.). […] To identify PKIs that disrupt yeast cell wall integrity, a four-part screening strategy as outlined in FIG. 1A was designed. The primary screen in the approach detects molecules that cause yeast cells to lyse, a characteristic phenotype of yeast cell wall damage, by use of an assay that detects the release of adenylate kinase (AK) to the growth medium as a reporter of yeast cell lysis. […] Last, to select PKIs specific for the CWI signaling pathway, the set of hits were tested for their ability to block the activation of a transcriptional reporter of the CWI-signaling pathway. To rapidly survey a sample of well-characterized PKIs, the commercially available InhibitorSelect collection, a library of 80 PKIs with diverse mechanistic and structural characteristics, was utilized. C. albicans clinical reference strain SC5314 was screened against the InhibitorSelect library for molecules that caused a release of AK into the growth medium.
# C. albicans [2] = assay: Antifungal susceptibility (microdilution MIC), C. albicans; type: cell-based, Candida albicans
# Procedure: (§1) The antifungal activity of protein kinase inhibitors was determined using the Clinical and Laboratory Science Institute microdilution protocol M-27A2. Biofilm antifungal activity was determined using the protocol of Pierce et al. and is reported as MIC50S (Pierce et al., Nat. Protoc. 3:1494-1500 (2008)). Disk diffusion assays were performed as described previously (Roelants et al., Microbiology 150:3289-304 (2004)).
# To identify PKIs that disrupt yeast cell wall integrity, a four-part screening strategy as outlined in FIG. 1A was designed. The primary screen in the approach detects molecules that cause yeast cells to lyse, a characteristic phenotype of yeast cell wall damage, by use of an assay that detects the release of adenylate kinase (AK) to the growth medium as a reporter of yeast cell lysis. Previously it was shown that the AK assay in HTS format can detect as few as 500 lysed yeast cells in a sample of 10^5 cells (Didone et al., Nat. Protocol. 5:1107-14 (2010)). PKIs that cause yeast cells lysis (hits) were then re-confirmed by AK dose-response assays and tested for in vitro antifungal activity against the human fungal pathogen C. albicans using standard microdilution susceptibility testing. Last, to select PKIs specific for the CWI signaling pathway, the set of hits were tested for their ability to block the activation of a transcriptional reporter of the CWI-signaling pathway. […]
# [3] = system: CWI pathway reporter Rlm1-lacZ; assay: β-Galactosidase CWI pathway reporter assay (Rlm1-lacZ); type: cell-based; settings: sub-inhibitory concentrations (1/2 MIC), S. cerevisiae
# Procedure: Bars indicate mean fold change in Miller units of β-galactosidase activity relative to logarithmic phase cells without calcofluor or PKI. Error bars indicate standard deviation of three independent trials performed in triplicate. […] The percentage of cells with PI uptake was determined by fluorescence.
# Logarithmic phase S. cerevisiae (BY4741) cells harboring the pRLM1-lacZ plasmid were transferred to a 96-well plate, and treated with Calcofluor white ([…])+/−protein kinase inhibitor at sub-inhibitory concentrations (1/2MIC). The cells were incubated at room temperature for 5 hours and processed for β-galactosidase activity using the ThermoScientific Yeast β-galactosidase kit according to the manufacturer's instructions (Pierce; Rockford, Ill.). β-galactosidase activity was determined by measuring OD420 using a SpectraMax Plate reader (Molecular Devices) and expressed as fold change in Miller units (nmole/mg/min) relative to untreated cells. Each experiment was performed in duplicate with three independent isolates.
# The novel, antifungal PKIs identified in the primary screen were evaluated for their ability to block CWI pathway signaling using a reporter construct that contains two copies of the consensus binding site for the CWI-pathway-regulated transcription factor Rlm1 fused to the β-galactosidase gene (Jung et al., Mol. Microbiol. 46:781-9 (2002)). […]
# C. neoformans = assay: Antifungal susceptibility (microdilution MIC), C. neoformans; type: cell-based, Cryptococcus neoformans
# Procedure: as §1
# (FIG. 3A). […] Since the echinocandin class of cell wall-targeted 1,3-β-glucan synthase inhibitors is not active against C. neoformans, this represents one of the few cell wall-targeted molecules with activity against this important pathogen.
# C. albicans biofilms = assay: Biofilm XTT reduction assay of metabolic activity; type: cell-based, Candida albicans; settings: at higher concentrations than those active against planktonic cells
# Procedure: Filled circles indicate growth and clear circles indicate no detectable turbidity. The lowest concentration of drug resulting in no growth is defined as the MIC. […] Metabolic activity was determined using the XTT assay.
# SC5314 biofilms were generated in microtiter plates for 48 hours and treated with OSU-03012 for 24 hours before being subject to an XTT reduction assay of metabolic activity.
# as §1
# [4] = system: C. albicans strain SC5314; assay: Mouse model of candidiasis, kidney fungal burden; type: in vivo; settings: BALB/c mice, 100 mg/kg per day by oral gavage in peanut oil, 2 days, C. albicans SC5314 i.v.
# Procedure: (§2) YPD cultures were incubated at 37° C. for 30 hours in the presence of the indicated drugs and combinations. Aliquots were diluted and plated on YPD at 30° C. to determine inoculum. […] BALB/c mice (n=5 per group) were treated with 100 mg/kg OSU-03012 per day by oral gavage after inoculation with C. albicans SC5314 by tail vein injection for 2 days and kidney fungal burden was determined.
# On the day of inoculation (DO), BALB/c mice were restrained in a mechanical restrainer and inoculated with C. albicans strain SC5314 suspended in saline (1×10^5 cfu/animal) via lateral tail vein injection. OSU-03012 (100 mg/kg) in peanut oil was given by gavage to half the animals (n=5) and peanut oil alone was given to the other half of animals on the day of inoculation and on the following day. ON D2, the animals were sacrificed and the kidneys harvested. The kidneys were homogenized and dilutions were plated on yeast peptone dextrose plates containing gentamicin and vancomycin. The plates were incubated at 30° C. for one day and colony forming units per kidney were determined by standard methods. Differences between treatment and no treatment groups were analyzed by Student's t test with a statistically significant effect defined as P<0.05.
# C. neoformans H99 = assay: Time-kill evaluation in combination with fluconazole; type: cell-based, Cryptococcus neoformans; settings: C. neoformans H99, YPD, 37° C., 30 hours
# Procedure: as §2
# To determine if the combination of OSU-03012 and fluconazole was fungicidal, overnight cultures of C. neoformas strain H99 were diluted to 1.5×10^4 cells/ml in yeast peptone dextrose containing either: dimethyl sulfoxide (DMSO) (1% final concentration); fluconazole (2 μg/ml/1% DMSO); OSU-03012 (2 μg/ml/1% DMSO); or OSU-03012 and fluconazole (2 μg/ml each/1% DMSO). The cultures were incubated at 37° C. for 30 hours. Aliquots were removed at 0, 3, 6, 24, and 30 hours; diluted and plated on yeast peptone dextrose plates. The plates were incubated at 30° C. for 48 hours and colony forming units per ml determined by standard methods. It was determined that the combination of OSU-03012 and fluconazole was fungicidal (FIG. 9A).
# human cells = settings: cited from earlier work
# C. albicans [5] = assay: Checkerboard interaction assay (FIC); type: cell-based, Candida albicans
# Procedure: This assay allows one to compare the activity of a molecule alone and in combination with another molecule by generating a fractional inhibitory concentration (FIC). FIC for two drugs (A & B) is calculated as follows: […]. FIC values less than 0.5 are considered synergistic; between 0.5 and 1 are additive; between 1-2 are indifferent; and above 2 are antagonistic. […] Therefore, KP-372-1 is not synergistic with either agent.
# [6] = Candida albicans, C. albicans growth assay, Table 1, read-out: MIC
# [7] = C. albicans growth assay, Table 1
compound,measurement,setting,value
CN[C@@H]1C[C@H]2O[C@@](C)([C@@H]1OC)n1c3ccccc3c3c4c(c5c6ccccc6n2c5c31)C(=O)NC4 [Staurosporine],Fold increase in AK release,[1],48 Fold
same,MIC,C. albicans [2]; [6],0.5 µg/mL
CC[n+]1c(/C=C/N(C)c2ccccc2)n(-c2ccccc2)c2ccc(-c3nc4ccccc4s3)cc21.[I-] [Akt IV],Fold increase in AK release,[1],12 Fold
same,MIC,C. albicans [2]; [7],9 µg/mL
NCCNc1ncc(C(N)=O)c(Nc2cccc(C(F)(F)F)c2)n1 [Sykll],Fold increase in AK release,[1],14 Fold
same,MIC,C. albicans [2]; [7],9 µg/mL
same,Rlm1-lacZ reporter activity induced by Calcofluor white,[3],completely abolished reporter activity
NCC(=O)Nc1ccc(-n2nc(C(F)(F)F)cc2-c2ccc3c(ccc4ccccc43)c2)cc1 [OSU-03012],antifungal activity (in words),C. albicans [2]; C. albicans,good antifungal activity
same,MIC,"C. albicans [2]; Candida albicans, C. albicans, FIG. 7 legend, read-out: MIC",3 µg/mL
same,antifungal activity (in words),C. neoformans,good antifungal activity
same,MIC,"C. neoformans; Cryptococcus neoformans, FIG. 7 legend",4 µg/mL
same,activity against C. albicans biofilms (in words),C. albicans biofilms,showed activity
same,in vivo activity (kidney fungal burden),[4],in vivo activity against C. albicans infection
same,interaction with fluconazole,C. neoformans H99,synergistic
same,time-kill result of the combination,C. neoformans H99; OSU-03012 and fluconazole 2 μg/ml each,fungicidal
same,concentration tolerated in human cells,human cells,8000 ng/mL
O=C(Nc1cccc(Nc2ncc(Br)c(NCCc3cnc[nH]3)n2)c1)N1CCCC1 [BX-912],MIC (growth inhibition),"C. albicans [2]; C. albicans, planktonic",≥ 64 µg/mL
same,MIC (growth inhibition),C. neoformans,≥ 64 µg/mL
CN[C@@H]1C[C@H]2O[C@@](C)([C@@H]1OC)n1c3ccccc3c3c4c(c5c6ccccc6n2c5c31)C(=O)N[C@@H]4O [UCN-01],antifungal activity (in words),C. albicans [2]; C. albicans,good antifungal activity
same,antifungal activity (in words),C. neoformans,good antifungal activity
same,activity against C. albicans biofilms (in words),C. albicans biofilms,showed activity
same,FIC (fractional inhibitory concentration),C. albicans [5]; combination with caspofungin,1.0
same,FIC (fractional inhibitory concentration),C. albicans [5]; combination with fluconazole,0.3
Herbymicin,Fold increase in AK release,[1],127 Fold
same,MIC,C. albicans [2]; [7],40 µg/mL
CO[C@H]1C[C@@H]2CC[C@@H](C)[C@@](O)(O2)C(=O)C(=O)N2CCCC[C@H]2C(=O)O[C@H]([C@H](C)C[C@@H]2CC[C@@H](O)[C@H](OC)C2)CC(=O)[C@H](C)/C=C(\C)[C@@H](O)[C@@H](OC)C(=O)[C@H](C)C[C@H](C)/C=C/C=C/C=C/1C [Rapamycin],Fold increase in AK release,[1],17 Fold
same,MIC,C. albicans [2]; [6],100 µg/mL
COc1ccc2c(c[n+](C)c3c4cc5c(cc4ccc23)OCO5)c1OC [Chelerythine],Fold increase in AK release,[1],5 Fold
same,MIC,C. albicans [2]; [7],125 µg/mL
